# Measured values reported in the NIST ThermoML archive (doi:10.1016/j.fluid.2015.05.009).
# Numbers after ± are expanded uncertainties.
# What was measured:
# [1] = for surface tension liquid-gas: Pendant drop shape; for viscosity / mass density: 101.33 kPa, Liquid; for viscosity: Concentric cylinders viscometry; for mass density: Vibrating tube method
# [2] = refractive index (Na D-line) (dimensionless); details: 101.33 kPa, Liquid, Standard Abbe refractometry
smiles,measurement,setting,value
CCCCCCCC[P+](CCCCCCCC)(CCCCCCCC)CCCCCCCC.[Br-] [tetraoctylphosphonium bromide],surface tension liquid-gas,[1]; 318.1 K,27.4 ± 0.4 mN/m
same,viscosity,[1]; 318.15 K,376.5 ± 11 mPa·s
same,mass density,[1]; 318.15 K,945 ± 0.9 kg/m3
same,surface tension liquid-gas,[1]; 323.1 K,27.1 ± 0.4 mN/m
same,viscosity,[1]; 323.15 K,289.9 ± 7.5 mPa·s
same,mass density,[1]; 323.15 K,942 ± 0.9 kg/m3
same,viscosity,[1]; 328.15 K,226.4 ± 5.2 mPa·s
same,mass density,[1]; 328.15 K,938.9 ± 0.9 kg/m3
same,surface tension liquid-gas,[1]; 333.1 K,26.6 ± 0.4 mN/m
same,viscosity,[1]; 333.15 K,178.7 ± 3.6 mPa·s
same,mass density,[1]; 333.15 K,935.9 ± 0.9 kg/m3
same,viscosity,[1]; 338.15 K,142.1 ± 2.5 mPa·s
same,mass density,[1]; 338.15 K,932.9 ± 0.9 kg/m3
same,surface tension liquid-gas,[1]; 343.1 K,26 ± 0.4 mN/m
same,viscosity,[1]; 343.15 K,114.4 ± 1.7 mPa·s
same,mass density,[1]; 343.15 K,929.8 ± 0.9 kg/m3
same,viscosity,[1]; 348.15 K,93.4 ± 1.2 mPa·s
same,mass density,[1]; 348.15 K,926.8 ± 0.9 kg/m3
same,viscosity,[1]; 353.15 K,76.8 ± 0.9 mPa·s
same,mass density,[1]; 353.15 K,923.7 ± 0.8 kg/m3
same,refractive index,[2]; 318.15 K,1.48262 ± 0.00051
same,refractive index,[2]; 323.15 K,1.48092 ± 0.00051
same,refractive index,[2]; 328.15 K,1.47916 ± 0.00051
same,refractive index,[2]; 333.15 K,1.47699 ± 0.00051
same,refractive index,[2]; 338.15 K,1.47523 ± 0.00051
same,refractive index,[2]; 343.15 K,1.47354 ± 0.00051
same,refractive index,[2]; 348.15 K,1.47195 ± 0.00051
same,refractive index,[2]; 353.15 K,1.47035 ± 0.00051
CCCC[P+](CC)(CCCC)CCCC.CCOP(=O)([O-])OCC [tributylethylphosphonium diethylphosphate],viscosity,[1]; 283.15 K,1018.4 ± 43 mPa·s
same,mass density,[1]; 283.15 K,1021.5 ± 0.9 kg/m3
same,viscosity,[1]; 288.15 K,669.5 ± 24 mPa·s
same,mass density,[1]; 288.15 K,1018 ± 0.9 kg/m3
same,viscosity,[1]; 293.15 K,466.4 ± 15 mPa·s
same,mass density,[1]; 293.15 K,1014.4 ± 0.9 kg/m3
same,surface tension liquid-gas,[1]; 293.2 K,31.4 ± 0.5 mN/m
same,viscosity,[1]; 298.15 K,316.8 ± 8.6 mPa·s
same,mass density,[1]; 298.15 K,1010.9 ± 0.9 kg/m3
same,surface tension liquid-gas,[1]; 298.2 K,30.5 ± 0.4 mN/m
same,viscosity,[1]; 303.15 K,226.7 ± 5.2 mPa·s
same,mass density,[1]; 303.15 K,1007.5 ± 0.9 kg/m3
same,surface tension liquid-gas,[1]; 303.2 K,29.8 ± 0.4 mN/m
same,viscosity,[1]; 308.15 K,166 ± 3.2 mPa·s
same,mass density,[1]; 308.15 K,1004.1 ± 0.9 kg/m3
same,surface tension liquid-gas,[1]; 313.1 K,29.2 ± 0.4 mN/m
same,viscosity,[1]; 313.15 K,124.7 ± 2 mPa·s
same,mass density,[1]; 313.15 K,1000.7 ± 0.9 kg/m3
same,viscosity,[1]; 318.15 K,94.6 ± 1.3 mPa·s
same,mass density,[1]; 318.15 K,997.6 ± 0.9 kg/m3
same,surface tension liquid-gas,[1]; 323.1 K,28.5 ± 0.4 mN/m
same,viscosity,[1]; 323.15 K,73.4 ± 0.8 mPa·s
same,mass density,[1]; 323.15 K,994.3 ± 0.9 kg/m3
same,viscosity,[1]; 328.15 K,57.9 ± 0.6 mPa·s
same,mass density,[1]; 328.15 K,990.9 ± 0.9 kg/m3
same,surface tension liquid-gas,[1]; 333.1 K,27.5 ± 0.4 mN/m
same,viscosity,[1]; 333.15 K,46.4 ± 0.5 mPa·s
same,mass density,[1]; 333.15 K,987.6 ± 0.9 kg/m3
same,viscosity,[1]; 338.15 K,37.5 ± 0.4 mPa·s
same,mass density,[1]; 338.15 K,984.3 ± 0.9 kg/m3
same,surface tension liquid-gas,[1]; 343.1 K,31.4 ± 0.5 mN/m
same,viscosity,[1]; 343.15 K,30.8 ± 0.3 mPa·s
same,mass density,[1]; 343.15 K,980.9 ± 0.9 kg/m3
same,viscosity,[1]; 348.15 K,25.6 ± 0.3 mPa·s
same,mass density,[1]; 348.15 K,977.6 ± 0.9 kg/m3
same,viscosity,[1]; 353.15 K,21.6 ± 0.2 mPa·s
same,mass density,[1]; 353.15 K,974.3 ± 0.9 kg/m3
same,refractive index,[2]; 283.15 K,1.47176 ± 0.00051
same,refractive index,[2]; 288.15 K,1.46996 ± 0.00051
same,refractive index,[2]; 293.15 K,1.46809 ± 0.00051
same,refractive index,[2]; 298.15 K,1.46618 ± 0.00051
same,refractive index,[2]; 303.15 K,1.46474 ± 0.00051
same,refractive index,[2]; 308.15 K,1.46308 ± 0.00051
same,refractive index,[2]; 313.15 K,1.4611 ± 0.00051
same,refractive index,[2]; 318.15 K,1.45923 ± 0.00051
same,refractive index,[2]; 323.15 K,1.45738 ± 0.00051
same,refractive index,[2]; 328.15 K,1.45563 ± 0.00051
same,refractive index,[2]; 333.15 K,1.45385 ± 0.00051
same,refractive index,[2]; 338.15 K,1.45212 ± 0.00051
same,refractive index,[2]; 343.15 K,1.45045 ± 0.00051
same,refractive index,[2]; 348.15 K,1.4488 ± 0.00051
same,refractive index,[2]; 353.15 K,1.44718 ± 0.00051
CCCC[P+](C)(CCCC)CCCC.COS(=O)(=O)[O-] [tributylmethylphosphonium methyl sulfate],viscosity,[1]; 283.15 K,6214.1 ± 410 mPa·s
same,mass density,[1]; 283.15 K,1076.5 ± 1 kg/m3
same,viscosity,[1]; 288.15 K,3840.1 ± 230 mPa·s
same,mass density,[1]; 288.15 K,1073.4 ± 1 kg/m3
same,viscosity,[1]; 293.15 K,2476.4 ± 130 mPa·s
same,mass density,[1]; 293.15 K,1070.3 ± 1 kg/m3
same,surface tension liquid-gas,[1]; 293.2 K,35.5 ± 0.5 mN/m
same,viscosity,[1]; 298.15 K,1629.2 ± 78 mPa·s
same,mass density,[1]; 298.15 K,1067.2 ± 1 kg/m3
same,surface tension liquid-gas,[1]; 298.2 K,34.7 ± 0.5 mN/m
same,viscosity,[1]; 303.15 K,1109.1 ± 48 mPa·s
same,mass density,[1]; 303.15 K,1064.1 ± 1 kg/m3
same,surface tension liquid-gas,[1]; 303.2 K,34.1 ± 0.5 mN/m
same,viscosity,[1]; 308.15 K,774.5 ± 30 mPa·s
same,mass density,[1]; 308.15 K,1061 ± 1 kg/m3
same,surface tension liquid-gas,[1]; 313.1 K,33.5 ± 0.5 mN/m
same,viscosity,[1]; 313.15 K,555 ± 19 mPa·s
same,mass density,[1]; 313.15 K,1057.9 ± 1 kg/m3
same,viscosity,[1]; 318.15 K,403.6 ± 12 mPa·s
same,mass density,[1]; 318.15 K,1054.8 ± 1 kg/m3
same,surface tension liquid-gas,[1]; 323.1 K,32.9 ± 0.5 mN/m
same,viscosity,[1]; 323.15 K,300 ± 7.9 mPa·s
same,mass density,[1]; 323.15 K,1051.8 ± 1 kg/m3
same,viscosity,[1]; 328.15 K,227 ± 5.2 mPa·s
same,mass density,[1]; 328.15 K,1048.9 ± 1 kg/m3
same,surface tension liquid-gas,[1]; 333.1 K,32.2 ± 0.5 mN/m
same,viscosity,[1]; 333.15 K,174.7 ± 3.5 mPa·s
same,mass density,[1]; 333.15 K,1045.9 ± 1 kg/m3
same,viscosity,[1]; 338.15 K,136.3 ± 2.3 mPa·s
same,mass density,[1]; 338.15 K,1043 ± 1 kg/m3
same,viscosity,[1]; 343.15 K,107.9 ± 1.6 mPa·s
same,mass density,[1]; 343.15 K,1040.1 ± 1 kg/m3
same,viscosity,[1]; 348.15 K,86.4 ± 1.1 mPa·s
same,mass density,[1]; 348.15 K,1037.3 ± 1 kg/m3
same,viscosity,[1]; 353.15 K,70 ± 0.8 mPa·s
same,mass density,[1]; 353.15 K,1034.4 ± 1 kg/m3
same,refractive index,[2]; 283.15 K,1.48038 ± 0.00051
same,refractive index,[2]; 288.15 K,1.47891 ± 0.00051
same,refractive index,[2]; 293.15 K,1.47742 ± 0.00051
same,refractive index,[2]; 298.15 K,1.47632 ± 0.00051
same,refractive index,[2]; 303.15 K,1.47427 ± 0.00051
same,refractive index,[2]; 308.15 K,1.47232 ± 0.00051
same,refractive index,[2]; 313.15 K,1.47072 ± 0.00051
same,refractive index,[2]; 318.15 K,1.46912 ± 0.00051
same,refractive index,[2]; 323.15 K,1.46758 ± 0.00051
same,refractive index,[2]; 328.15 K,1.46603 ± 0.00051
same,refractive index,[2]; 333.15 K,1.46457 ± 0.00051
same,refractive index,[2]; 338.15 K,1.46318 ± 0.00051
same,refractive index,[2]; 343.15 K,1.46185 ± 0.00051
same,refractive index,[2]; 348.15 K,1.46067 ± 0.00051
same,refractive index,[2]; 353.15 K,1.45965 ± 0.00051
CC(C)C[P+](C)(CC(C)C)CC(C)C.Cc1ccc(S(=O)(=O)[O-])cc1 [triisobutylmethylphosphonium p-toluenesulfonate],viscosity,[1]; 283.15 K,21829 ± 1800 mPa·s
same,mass density,[1]; 283.15 K,1082.4 ± 1 kg/m3
same,viscosity,[1]; 288.15 K,11305 ± 830 mPa·s
same,mass density,[1]; 288.15 K,1079.3 ± 1 kg/m3
same,viscosity,[1]; 293.15 K,6231.9 ± 410 mPa·s
same,mass density,[1]; 293.15 K,1076.2 ± 1 kg/m3
same,surface tension liquid-gas,[1]; 293.2 K,38.1 ± 0.5 mN/m
same,viscosity,[1]; 298.15 K,3612.4 ± 210 mPa·s
same,mass density,[1]; 298.15 K,1073.2 ± 1 kg/m3
same,surface tension liquid-gas,[1]; 298.2 K,37.3 ± 0.5 mN/m
same,viscosity,[1]; 303.15 K,2199.9 ± 110 mPa·s
same,mass density,[1]; 303.15 K,1070.1 ± 1 kg/m3
same,surface tension liquid-gas,[1]; 303.2 K,36.6 ± 0.5 mN/m
same,viscosity,[1]; 308.15 K,1397.3 ± 64 mPa·s
same,mass density,[1]; 308.15 K,1067 ± 1 kg/m3
same,surface tension liquid-gas,[1]; 313.1 K,35.5 ± 0.5 mN/m
same,viscosity,[1]; 313.15 K,917.9 ± 37 mPa·s
same,mass density,[1]; 313.15 K,1064 ± 1 kg/m3
same,viscosity,[1]; 318.15 K,623.7 ± 22 mPa·s
same,mass density,[1]; 318.15 K,1060.9 ± 1 kg/m3
same,surface tension liquid-gas,[1]; 323.1 K,35 ± 0.5 mN/m
same,viscosity,[1]; 323.15 K,436.2 ± 14 mPa·s
same,mass density,[1]; 323.15 K,1057.7 ± 1 kg/m3
same,viscosity,[1]; 328.15 K,313.1 ± 8.4 mPa·s
same,mass density,[1]; 328.15 K,1054.7 ± 1 kg/m3
same,surface tension liquid-gas,[1]; 333.1 K,34.3 ± 0.5 mN/m
same,viscosity,[1]; 333.15 K,230.1 ± 5.3 mPa·s
same,mass density,[1]; 333.15 K,1051.8 ± 1 kg/m3
same,viscosity,[1]; 338.15 K,172.7 ± 3.4 mPa·s
same,mass density,[1]; 338.15 K,1048.8 ± 1 kg/m3
same,viscosity,[1]; 343.15 K,132.1 ± 2.2 mPa·s
same,mass density,[1]; 343.15 K,1045.9 ± 1 kg/m3
same,viscosity,[1]; 348.15 K,102.8 ± 1.5 mPa·s
same,mass density,[1]; 348.15 K,1043.1 ± 1 kg/m3
same,viscosity,[1]; 353.15 K,81.3 ± 1 mPa·s
same,mass density,[1]; 353.15 K,1040.2 ± 1 kg/m3
same,refractive index,[2]; 283.15 K,1.52489 ± 0.00051
same,refractive index,[2]; 288.15 K,1.52338 ± 0.00051
same,refractive index,[2]; 293.15 K,1.5217 ± 0.00051
same,refractive index,[2]; 298.15 K,1.5203 ± 0.00051
same,refractive index,[2]; 303.15 K,1.51828 ± 0.00051
same,refractive index,[2]; 308.15 K,1.51635 ± 0.00051
same,refractive index,[2]; 313.15 K,1.51433 ± 0.00051
same,refractive index,[2]; 318.15 K,1.51233 ± 0.00051
same,refractive index,[2]; 323.15 K,1.51055 ± 0.00051
same,refractive index,[2]; 328.15 K,1.50872 ± 0.00051
same,refractive index,[2]; 333.15 K,1.50698 ± 0.00051
same,refractive index,[2]; 338.15 K,1.50537 ± 0.00051
same,refractive index,[2]; 343.15 K,1.50391 ± 0.00051
same,refractive index,[2]; 348.15 K,1.50252 ± 0.00051
same,refractive index,[2]; 353.15 K,1.50124 ± 0.00051
